Test results published in patent publication US11639343B2, “Compounds targeting and degrading BCR-ABL protein and its antitumor application” (ShanghaiTech University, priority 2019, dated 2023).
Where two headings read alike, the source gives them in different places.

Legend:
K562 (BCR-ABL+) cells = assay: CCK-8 proliferation inhibition, K562 cells; format: cell-based, human; conditions: CCK-8, 48 hours of drug treatment, read-out: Proliferative inhibitory activity (IC50, nM) K562 (BCR-ABL+);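 note: Ten-point threefold dilution series starting at 10 µM, absorbance at 450 nm after 2 h with CCK-8, DMSO as negative control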
U937 (BCR-ABL-) cells = assay: CCK-8 proliferation inhibition, U937 cells; format: cell-based, human; conditions: Homo sapiens, U-937; CCK-8, 48 hours of drug treatment, highest concentration 10 μM; read-out: Proliferative inhibitory activity (IC50, nM) U937 (BCR-ABL-);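 note: Ten-point threefold dilution series, absorbance at 450 nm after 2 h with CCK-8 reagent, DMSO as negative control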
HEK293 (BCR-ABL-) cells = assay: CCK-8 proliferation inhibition, HEK293 cells; conditions: Homo sapiens, HEK293, 48 h, read-out: Proliferative inhibitory activity (IC50, nM) HEK293 (BCR-ABL-);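 note: Ten-point threefold dilution series starting at 10 µM, CCK-8 absorbance at 450 nm read after 2 h reagent incubation, DMSO-treated cells as negative control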
c-ABL protein = c-ABL protein (Homo sapiens, UniProt P00519); assay: Western blot degradation of c-ABL in K562 cells; format: cell-based; set-up: Western blot was used to detect the expression of BCR-ABL and c-ABL protein in K562 cells; endogenous in cells; host or cells: K562; conditions: 16 hours, 1 nM-10 μM
Description: (§1) (1) Cell seed: K562 cells were added to the 24 well plates, with a cell density of 3×10^5/ml and a total volume of 1.5 ml; Five concentration gradients, 1 nm, 10 nm, 100 nm, 1 μM, and 10 μM, were respectively set for PROTAD series compounds and comparative examples compounds (Dasa-6-2-2-6-VHL, Dasa-6-2-6-CRBN). […] After 16 hours of drug treatment, the cells were collected in 1.5 ml ep tube, centrifuged at 3000 rpm for 3 minutes, and then added 30 μL PBS and 30 ul 2×SDS to cell precipitated, lysate Heat at 100° C. for 5 minutes, then place on ice for 5 minutes, centrifuged at 10000 rpm for 5 minutes, and take the supernatant as the total protein extracted. The protein concentration was determined by the Bradford method. After each sample was at the same concentration, bromophenol blue was added as the sample indicator.
(§2) (2) Electrophoresis: the starting voltage of the BioRad electrophoresis instrument was 80V, and as the dye enters the separation gel, the voltage was adjusted to 120V;
(§3) (3) Film transfer: prepare filter paper and nitrocellulose membrane with the corresponding size of the gel, filter paper, and NC film were soaked in transfer electrophoresis buffer.
(§4) DC50 (concentration required to degrade protein by half) were calculated based on the intensity from western blot, and data were analyzed via Prism GraphPad with non-linear regression.

BCR-ABL protein = BCR-ABL protein (Homo sapiens, UniProt P00519); assay: Western blot degradation of BCR-ABL in K562 cells; format: cell-based; set-up: Western blot was used to detect the expression of BCR-ABL and c-ABL protein in K562 cells; BCR (fusion partner, P11274); endogenous in cells; host or cells: K562; the other entry of the earlier key: BCR (P11274, Breakpoint cluster region protein); conditions: 16 hours; for DC50: 1 nM-10 μM
Description: as §1, §2, §3, §4

Sequence of BCR-ABL protein (P00519 with tags, fused parts or gaps): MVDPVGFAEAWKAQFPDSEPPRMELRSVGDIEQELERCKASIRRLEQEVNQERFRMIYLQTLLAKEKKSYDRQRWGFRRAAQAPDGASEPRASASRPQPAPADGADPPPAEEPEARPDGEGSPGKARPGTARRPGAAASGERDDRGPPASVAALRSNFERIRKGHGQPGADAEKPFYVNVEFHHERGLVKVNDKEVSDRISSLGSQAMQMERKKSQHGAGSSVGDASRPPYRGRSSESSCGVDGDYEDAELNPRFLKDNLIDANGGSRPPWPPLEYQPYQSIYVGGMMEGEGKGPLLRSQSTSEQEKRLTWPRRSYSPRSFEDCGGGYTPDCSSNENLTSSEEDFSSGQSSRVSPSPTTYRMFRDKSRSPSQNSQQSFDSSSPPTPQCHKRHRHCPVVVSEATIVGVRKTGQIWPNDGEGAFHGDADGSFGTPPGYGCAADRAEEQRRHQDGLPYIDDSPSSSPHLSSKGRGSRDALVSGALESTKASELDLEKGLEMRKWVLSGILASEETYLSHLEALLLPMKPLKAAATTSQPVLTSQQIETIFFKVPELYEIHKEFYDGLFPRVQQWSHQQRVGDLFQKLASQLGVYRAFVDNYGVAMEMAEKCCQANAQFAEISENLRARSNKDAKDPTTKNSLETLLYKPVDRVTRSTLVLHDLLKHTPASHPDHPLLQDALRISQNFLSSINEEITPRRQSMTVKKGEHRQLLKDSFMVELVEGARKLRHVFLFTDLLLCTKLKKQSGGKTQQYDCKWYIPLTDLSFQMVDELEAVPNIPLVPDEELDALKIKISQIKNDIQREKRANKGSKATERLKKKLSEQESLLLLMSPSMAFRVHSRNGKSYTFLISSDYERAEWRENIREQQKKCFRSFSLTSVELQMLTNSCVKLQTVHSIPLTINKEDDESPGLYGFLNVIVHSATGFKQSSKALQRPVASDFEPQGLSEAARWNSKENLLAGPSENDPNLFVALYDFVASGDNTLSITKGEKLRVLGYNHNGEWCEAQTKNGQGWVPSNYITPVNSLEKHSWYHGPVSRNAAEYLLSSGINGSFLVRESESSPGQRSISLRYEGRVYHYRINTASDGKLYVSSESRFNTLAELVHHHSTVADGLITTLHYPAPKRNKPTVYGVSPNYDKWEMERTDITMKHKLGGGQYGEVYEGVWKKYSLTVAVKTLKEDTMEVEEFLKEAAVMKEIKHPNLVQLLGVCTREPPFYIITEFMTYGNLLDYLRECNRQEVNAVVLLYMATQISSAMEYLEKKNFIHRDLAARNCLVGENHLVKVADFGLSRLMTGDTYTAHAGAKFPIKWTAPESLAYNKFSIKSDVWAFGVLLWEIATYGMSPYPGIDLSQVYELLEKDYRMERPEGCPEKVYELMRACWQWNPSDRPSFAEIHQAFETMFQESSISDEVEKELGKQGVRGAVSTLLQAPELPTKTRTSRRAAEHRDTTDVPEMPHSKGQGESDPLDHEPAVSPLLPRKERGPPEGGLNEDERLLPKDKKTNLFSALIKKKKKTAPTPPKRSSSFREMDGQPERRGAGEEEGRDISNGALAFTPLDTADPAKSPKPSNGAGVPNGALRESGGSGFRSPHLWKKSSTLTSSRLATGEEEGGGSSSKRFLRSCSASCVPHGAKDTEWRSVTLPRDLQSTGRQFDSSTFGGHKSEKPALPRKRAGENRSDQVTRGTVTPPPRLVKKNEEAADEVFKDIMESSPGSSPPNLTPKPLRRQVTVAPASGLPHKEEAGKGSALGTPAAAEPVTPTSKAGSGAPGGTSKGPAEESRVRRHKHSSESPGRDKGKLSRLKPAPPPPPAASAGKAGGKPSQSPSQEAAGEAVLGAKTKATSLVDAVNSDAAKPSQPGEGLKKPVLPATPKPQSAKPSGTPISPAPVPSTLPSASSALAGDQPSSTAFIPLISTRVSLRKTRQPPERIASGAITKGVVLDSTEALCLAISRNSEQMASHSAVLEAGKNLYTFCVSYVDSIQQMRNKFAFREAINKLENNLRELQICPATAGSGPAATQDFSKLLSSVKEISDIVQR
Sequence of c-ABL protein (P00519 whole entry): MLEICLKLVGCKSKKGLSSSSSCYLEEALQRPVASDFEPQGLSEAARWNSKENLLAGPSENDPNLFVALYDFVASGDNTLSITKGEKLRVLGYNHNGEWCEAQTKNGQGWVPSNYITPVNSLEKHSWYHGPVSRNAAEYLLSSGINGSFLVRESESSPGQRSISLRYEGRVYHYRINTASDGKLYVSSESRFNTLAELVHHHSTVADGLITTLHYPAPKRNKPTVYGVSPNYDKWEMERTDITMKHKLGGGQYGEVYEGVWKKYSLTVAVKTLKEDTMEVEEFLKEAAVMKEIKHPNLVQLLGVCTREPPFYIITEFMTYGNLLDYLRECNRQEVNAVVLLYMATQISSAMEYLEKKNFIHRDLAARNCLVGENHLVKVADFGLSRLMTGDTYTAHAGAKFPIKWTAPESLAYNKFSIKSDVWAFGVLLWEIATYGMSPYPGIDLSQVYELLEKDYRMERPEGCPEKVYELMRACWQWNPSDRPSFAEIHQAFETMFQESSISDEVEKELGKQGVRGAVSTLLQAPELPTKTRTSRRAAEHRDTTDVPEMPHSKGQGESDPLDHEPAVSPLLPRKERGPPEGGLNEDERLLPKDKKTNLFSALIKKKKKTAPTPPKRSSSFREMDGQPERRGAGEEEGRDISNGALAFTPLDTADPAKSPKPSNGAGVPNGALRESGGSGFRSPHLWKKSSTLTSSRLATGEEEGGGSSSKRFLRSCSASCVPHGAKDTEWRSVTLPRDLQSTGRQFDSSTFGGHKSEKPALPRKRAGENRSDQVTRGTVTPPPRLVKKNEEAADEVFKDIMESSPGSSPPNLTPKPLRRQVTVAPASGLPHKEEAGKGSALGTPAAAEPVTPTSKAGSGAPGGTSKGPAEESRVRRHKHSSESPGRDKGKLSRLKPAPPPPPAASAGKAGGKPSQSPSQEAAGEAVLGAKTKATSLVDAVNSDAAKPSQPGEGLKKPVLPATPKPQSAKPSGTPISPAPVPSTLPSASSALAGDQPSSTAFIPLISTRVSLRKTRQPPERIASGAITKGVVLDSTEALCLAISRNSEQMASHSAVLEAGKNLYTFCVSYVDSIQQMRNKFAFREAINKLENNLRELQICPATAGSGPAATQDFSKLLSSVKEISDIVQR

Structure (SMILES) | IC50 (K562 (BCR-ABL+) cells; Homo sapiens, K562, 48 h) [nM] | IC50 (U937 (BCR-ABL-) cells) [nM] | DC50 (c-ABL protein) [µM] | DC50 (BCR-ABL protein) [µM] | degradation of BCR-ABL protein (in words) (BCR-ABL protein) | IC50 (K562 (BCR-ABL+) cells) [nM] | IC50 (HEK293 (BCR-ABL-) cells) [nM]
COc1cc(Nc2c(C#N)cnc3cc(OCCCN4CCN(C(=O)CCOCCOCCOCCNc5cccc6c5C(=O)N(C5CCC(=O)NC5=O)C6=O)CC4)c(OC)cc23)c(Cl)cc1Cl (stereo not shown) [SIAIS151159, 4-((2,4-dichloro-5-methoxyphenyl)amino)-7-(3-(4-(3-(2-(2-(2-((2-(2,6-dioxopiperidin-3-yl)-1,3-dioxoisoindolin-4-yl)amino)ethoxy)ethoxy)ethoxy)propanoyl)piperazin-1-yl)propoxy)-6-methoxyquinoline-3-carbonitrile] | 4260 | > 10000 | 0.01 to 0.1 | 0.01 to 0.1 | – | – | > 10000
COc1cc(Nc2c(C#N)cnc3cc(OCCCN4CCN(C(=O)CCOCCOCCNc5cccc6c5C(=O)N(C5CCC(=O)NC5=O)C6=O)CC4)c(OC)cc23)c(Cl)cc1Cl (stereo not shown) [SIAIS151158, 4-((2,4-dichloro-5-methoxyphenyl)amino)-7-(3-(4-(3-(2-(2-((2-(2,6-dioxopiperidin-3-yl)-1,3-dioxoisoindolin-4-yl)amino)ethoxy)ethoxy)propanoyl)piperazin-1-yl)propoxy)-6-methoxyquinoline-3-carbonitrile] | 3130 | > 10000 | 0.01 to 0.1 | 0.01 to 0.1 | – | – | > 10000
Cc1nc(Nc2ncc(C(=O)Nc3c(C)cccc3Cl)s2)cc(N2CCN(C(=O)CC(=O)Nc3cccc4c3CN(C3CCC(=O)NC3=O)C4=O)CC2)n1 (stereo not shown) [SIAIS164108, N-(2-chloro-6-methylphenyl)-2-((6-(4-(3-((2-(2,6-dioxopiperidin-3-yl)-1-oxoisoindolin-4-yl)amino)-3-oxopropanoyl)piperazin-1-yl)-2-methylpyrimidin-4-yl)amino)thiazole-5-carboxamide] | 12.2 | > 10000 | 0.01 to 0.1 | 0.01 to 0.1 | – | – | > 10000
COc1cc(Nc2c(C#N)cnc3cc(OCCCN4CCN(C(=O)CNc5cccc6c5C(=O)N(C5CCC(=O)NC5=O)C6=O)CC4)c(OC)cc23)c(Cl)cc1Cl (stereo not shown) [SIAIS151164, 4-((2,4-dichloro-5-methoxyphenyl)amino)-7-(3-(4-((2-(2,6-dioxopiperidin-3-yl)-1,3-dioxoisoindolin-4-yl)glycyl)piperazin-1-yl)propoxy)-6-methoxyquinoline-3-carbonitrile] | – | – | 0.01 to 0.1 | 0.01 to 0.1 | – | – | –
COc1cc(Nc2c(C#N)cnc3cc(OCCCN4CCN(C(=O)CCCC(=O)Nc5cccc6c5CN(C5CCC(=O)NC5=O)C6=O)CC4)c(OC)cc23)c(Cl)cc1Cl (stereo not shown) [SIAIS164106, 5-(4-(3-((3-cyano-4-((2,4-dichloro-5-methoxyphenyl)amino)-6-methoxyquinolin-7-yl)oxy)propyl)piperazin-1-yl)-N-(2-(2,6-dioxopiperidin-3-yl)-1-oxoisoindolin-4-yl)-5-oxopentanamide] | 438 | > 10000 | – | – | – | – | > 10000

More lines, main results first:

IC50 (K562 (BCR-ABL+) cells; Homo sapiens, K562, 48 h) [nM] | IC50 (U937 (BCR-ABL-) cells) [nM] | DC50 (c-ABL protein) [µM] | DC50 (BCR-ABL protein) [µM] | degradation of BCR-ABL protein (in words) (BCR-ABL protein) | IC50 (K562 (BCR-ABL+) cells) [nM] | Structure (SMILES) | IC50 (HEK293 (BCR-ABL-) cells) [nM]
40.4 | > 10000 | 0.01 to 0.1 | 0.001 to 0.01 | – | – | Cc1nc(Nc2ncc(C(=O)Nc3c(C)cccc3Cl)s2)cc(N2CCN(C(=O)CCOCCOCCOCCOCCNc3cccc4c3C(=O)N(C3CCC(=O)NC3=O)C4=O)CC2)n1 (stereo not shown) [SIAIS151068, N-(2-chloro-6-methylphenyl)-2-((6-(4-(1-((2-(2,6-dioxopiperidin-3-yl)-1,3-dioxoisoindolin-4-yl)amino)-3,6,9,12-tetraoxapentadecan-15-oyl)piperazin-1-yl)-2-methylpyrimidin-4-yl)amino)thiazole-5-carboxamide] | > 10000
2160 | > 10000 | > 1 | 0.1 to 1 | – | – | Cc1nc(Nc2ncc(C(=O)Nc3c(C)cccc3Cl)s2)cc(N2CCN(C(=O)CCOCCOCCOCCOCCC(=O)N[C@H](C(=O)N3C[C@H](O)C[C@H]3C(=O)NCc3ccc(-c4scnc4C)cc3)C(C)(C)C)CC2)n1 [SIAIS151078, N-(2-chloro-6-methylphenyl)-2-((6-(4-((S)-18-((2S,4R)-4-hydroxy-2-((4-(4-methylthiazol-5-yl)benzyl)carbamoyl)pyrrolidine-1-carbonyl)-19,19-dimethyl-16-oxo-4,7,10,13-tetraoxa-17-azaicosanoyl)piperazin-1-yl)-2-methylpyrimidin-4-yl)amino)thiazole-5-carboxamide] | > 10000
– | – | 0.1 to 1 | 0.1 to 1 | – | – | Cc1ccc(NC(=O)c2ccc(CN3CCN(C(=O)CCCCCCC(=O)N[C@H](C(=O)N4C[C@H](O)C[C@H]4C(=O)NCc4ccc(-c5scnc5C)cc4)C(C)(C)C)CC3)cc2)cc1Nc1nccc(-c2cccnc2)n1 [SIAIS074031, (2S,4R)-1-((S)-3,3-dimethyl-2-(8-(4-(4-((4-methyl-3-((4-(pyridin-3-yl)pyrimidin-2-yl)amino)phenyl)carbamoyl)benzyl)piperazin-1-yl)-8-oxooctanamido)butanoyl)-4-hydroxy-N-(4-(4-methylthiazol-5-yl)benzyl)pyrrolidine-2-carboxamide] | –
4.2 | > 10000 | 0.01 to 0.1 | 0.001 to 0.01 | – | – | Cc1nc(Nc2ncc(C(=O)Nc3c(C)cccc3Cl)s2)cc(N2CCN(C(=O)CCCCNc3cccc4c3CN(C3CCC(=O)NC3=O)C4=O)CC2)n1 (stereo not shown) [SIAIS184052, N-(2-chloro-6-methylphenyl)-2-((6-(4-(5-((2-(2,6-dioxopiperidin-3-yl)-1-oxoisoindolin-4-yl)amino)pentanoyl)piperazin-1-yl)-2-methylpyrimidin-4-yl)amino)thiazole-5-carboxamide] | > 10000
– | – | – | – | cannot degrade BCR-ABL protein | – | Cc1nc(Nc2ncc(C(=O)Nc3c(C)cccc3Cl)s2)cc(N2CCN(CCCCCCOCCOCCOCCCCCC(=O)N[C@H](C(=O)N3C[C@H](O)C[C@H]3C(=O)NCc3ccc(-c4scnc4C)cc3)C(C)(C)C)CC2)n1 [Dasa-6-2-2-6-vhl, N-(2-chloro-6-methylphenyl)-2-((6-(4-((S)-3-((2S,4R)-4-hydroxy-2-((4-(4-methylthiazol-5-yl)benzyl)carbamoyl)pyrrolidine-1-carbonyl)-2,2-dimethyl-5-oxo-11,14,17-trioxa-4-azatricosan-23-yl)piperazin-1-yl)-2-methylpyrimidin-4-yl)amino)thiazole-5-carboxamide, reference compound] | –
– | – | 1 | 1 | – | – | Cc1ccc(NC(=O)c2ccc(CN3CCN(C(=O)CCOCCOCCOCCOCCC(=O)N[C@H](C(=O)N4C[C@H](O)C[C@H]4C(=O)NCc4ccc(-c5scnc5C)cc4)C(C)(C)C)CC3)cc2)cc1Nc1nccc(-c2cccnc2)n1 [SIAIS1197039, (2S,4R)-1-((S)-2-(tert-butyl)-19-(4-(4-((4-methyl-3-((4-(pyridin-3-yl)pyrimidin-2-yl)amino)phenyl)carbamoyl)benzyl)piperazin-1-yl)-4,19-dioxo-7,10,13,16-tetraoxa-3-azanonadecanoyl)-4-hydroxy-N-(4-(4-methylthiazol-5-yl)benzyl)pyrrolidine-2-carboxamide] | –
– | > 10000 | – | – | – | 2240 | Cc1nc(Nc2ncc(C(=O)Nc3c(C)cccc3Cl)s2)cc(N2CCN(C(=O)COCCOCC(=O)N[C@H](C(=O)N3C[C@H](O)C[C@H]3C(=O)NCc3ccc(-c4scnc4C)cc3)C(C)(C)C)CC2)n1 [SIAIS151080, N-(2-chloro-6-methylphenyl)-2-((6-(4-(2-(2-(2-(((S)-1-((2S,4R)-4-hydroxy-2-((4-(4-methylthiazol-5-yl)benzyl)carbamoyl)pyrrolidin-1-yl)-3,3-dimethyl-1-oxobutan-2-yl)amino)-2-oxoethoxy)ethoxy)acetyl)piperazin-1-yl)-2-methylpyrimidin-4-yl)amino)thiazole-5-carboxamide] | > 10000
